25 compounds from patent publication US20140243302A1, “BRIDGED BICYCLIC COMPOUNDS FOR THE TREATMENT OF BACTERIAL INFECTIONS” (priority 2011, published 2014) can be followed below.

In brackets after ≈: the same amount, converted by molar mass.

In the assay the test system is Staphylococcus aureus Smith. The assay can be described thus: MIC assay, modified agar dilution (CLSI), S. aureus Smith. As to conditions: agar dilution, 35° C., 16-20 hr, lowest concentration that completely inhibited growth; for MIC: Staphylococcus aureus, read-out: S_aureus_Smith_WT_MIC. In kind it is cell-based. The method, boiled down: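 Agar dilution per CLSI on Mueller Hinton agar (plus 5% horse blood for S. pneumoniae and E. faecium), compound 128 to 0.001 μg/mL in two-fold steps. Spots of ~1×10^4 CFU incubated at 35 °C for 16-20 hr before MIC scoring.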

In the case of `COc1ccc2ncc(C#N)c(CCC34CCC(NCc5cc6ccccc6n(C)c5=O)(CC3)CO4)c2n1.Cl` [Example 46, 6-Methoxy-4-(2-(4-((1-methyl-2-oxo-1,2-dihydroquinolin-3-yl)methylamino)-2-oxabicyclo[2.2.2]octan-1-yl)ethyl)-1,5-naphthyridine-3-carbonitrile Hydrochloride], the MIC is 2 mg/L. Compound `N#Cc1cnc2ccc(=O)n(CC(O)C34CCC(NCc5cc6c(cn5)OCCO6)(CC3)CO4)c2c1` (single isomer, unassigned; enantiomer b) [Example 161, 5-(2-(4-((2,3-Dihydro-[1,4]dioxino[2,3-c]pyridin-7-yl)methylamino)-2-oxabicyclo[2.2.2]octan-1-yl)-2-hydroxyethyl)-6-oxo-5,6-dihydro-1,5-naphthyridine-3-carbonitrile (Enantiomer B)] displayed a S_aureus_Smith_WT_MIC of 2.00 µg/mL. On to `O=C1COc2ccc(CNC34CCC(CCc5c(F)cnc6ccc(OC7CC(O)CC(O)C7)nc56)(CC3)OC4)nc2N1` (stereo not shown) [Example 166, 6-({[1-(2-{6-[(3,5-Dihydroxycyclohexyl)oxy]-3-fluoro-1,5-naphthyridin-4-yl}ethyl)-2-oxabicyclo[2.2.2]oct-4-yl]amino}methyl)-2H-pyrido[3,2-b][1,4]oxazin-3(4H)-one], for which the MIC was 0.5 mg/L (≈ 0.842 µM).

In the case of `Cc1ccc2ncc(=O)n(CCC34CCC(NCc5ccc6c(n5)NC(=O)CO6)(CC3)CO4)c2n1` [Example 126, 6-(((1-(2-(6-Methyl-3-oxopyrido[2,3-b]pyrazin-4(3H)-yl)ethyl)-2-oxabicyclo[2.2.2]octan-4-yl)amino)methyl)-2H-pyrido[3,2-b][1,4]oxazin-3(4H)-one], the MIC came out at 0.25 mg/L (≈ 0.525 µM). On the same count and under the same terms, the value for `COc1ccc2ncc(F)c(CCC34CCC(NCc5ccc6c(n5)NC(=O)CO6)(CC3)CC4)c2n1.Cl` [Example 4, 6-((4-(2-(3-Fluoro-6-methoxy-1,5-naphthyridin-4-yl)ethyl)bicyclo[2.2.2]octan-1-ylamino)methyl)-2H-pyrido[3,2-b][1,4]oxazin-3(4H)-one Hydrochloride] was 0.016 mg/L. With `O=C1COc2ccc(CNC34CCC(CCc5c(F)cnc6ccc(OC[C@H]7C[C@@H](O)[C@@H](O)C7)nc56)(CC3)OC4)nc2N1` [Example 169, 6-((1-(2-(6-(((1r,3R,4S)-3,4-Dihydroxycyclopentyl)methoxy)-3-fluoro-1,5-naphthyridin-4-yl)ethyl)-2-oxabicyclo[2.2.2]octan-4-ylamino)methyl)-2H-pyrido[3,2-b][1,4]oxazin-3(4H)-one], the MIC turned out to be 0.063 mg/L (≈ 0.106 µM). As for `O=C1COc2ccc(CNC34CCC(CCc5c(F)cnc6ccc(N7CCOCC7)nc56)(CC3)OC4)nc2N1` [Example 28, 6-((1-(2-(3-Fluoro-6-morpholino-1,5-naphthyridin-4-yl)ethyl)-2-oxabicyclo[2.2.2]octan-4-ylamino)methyl)-2H-pyrido[3,2-b][1,4]oxazin-3(4H)-one], the MIC was 0.5 mg/L (≈ 0.911 µM). Turning to `COc1ccc2ncc(F)c(CC(O)C34CCC(NCc5ncc6c(n5)NC(=O)CO6)(CC3)CO4)c2n1` (stereo not shown) [Example 143, 2-((1-(2-(3-Fluoro-6-methoxy-1,5-naphthyridin-4-yl)-1-hydroxyethyl)-2-oxabicyclo[2.2.2]octan-4-ylamino)methyl)-6H-pyrimido[5,4-b][1,4]oxazin-7(8H)-one], the MIC is 0.031 mg/L (≈ 0.0607 µM). `COc1ccc2ncc(F)c(CCC34CCC(NCc5cc(OC)c(OC)cn5)(CC3)CO4)c2n1` [Example 62, N-((4,5-Dimethoxypyridin-2-yl)methyl)-1-(2-(3-fluoro-6-methoxy-1,5-naphthyridin-4-yl)ethyl)-2-oxabicyclo[2.2.2]octan-4-amine]: the MIC amounted to 4 mg/L (≈ 8.29 µM). In the case of `COc1ccc2ncc(F)c(CC(O)C34CCC(NC(=O)c5ccc(C)c(F)c5)(CC3)CO4)c2n1` (stereo not shown) [Example 173, 3-Fluoro-N-{1-[2-(3-fluoro-6-methoxy-1,5-naphthyridin-4-yl)-1-hydroxyethyl]-2-oxabicyclo[2.2.2]oct-4-yl}-4-methylbenzamide], the MIC was determined as 0.125 mg/L (≈ 0.259 µM). The same measure, in the same setting: the result for `COc1ccc2ccc(F)c(CCC34CCC(NCc5ccc6c(n5)NC(=O)CO6)(CC3)CO4)c2n1` [Example 153, 6-((1-(2-(7-Fluoro-2-methoxyquinolin-8-yl)ethyl)-2-oxabicyclo[2.2.2]octan-4-ylamino)methyl)-2H-pyrido[3,2-b][1,4]oxazin-3(4H)-one] reads 0.063 mg/L (≈ 0.128 µM); that for `O=C1COc2ccc(CNC34CCC(/C=C\c5c(Cl)cnc6ccc(O)nc56)(CC3)CC4)nc2N1` [Example 7, (Z)-6-((4-(2-(3-Chloro-6-hydroxy-1,5-naphthyridin-4-yl)vinyl)bicyclo[2.2.2]octan-1-ylamino)methyl)-2H-pyrido[3,2-b][1,4]oxazin-3(4H)-one], 0.5 mg/L (≈ 1.02 µM). With `COc1ccc2ncc(F)c(CCC34CCC(NCc5ccc6ccc(=O)[nH]c6n5)(CC3)CO4)c2n1` [Example 83, 7-((1-(2-(3-Fluoro-6-methoxy-1,5-naphthyridin-4-yl)ethyl)-2-oxabicyclo[2.2.2]octan-4-ylamino)methyl)-1,8-naphthyridin-2(1H)-one], the MIC came out at 1 mg/L (≈ 2.04 µM).

Consider `O=C1COc2ccc(CNC34CCC(CCc5c(F)cnc6ccc(N7CCC(O)CC7)nc56)(CC3)OC4)nc2N1` [Example 293, 6-((1-(2-(3-Fluoro-6-(4-hydroxypiperidin-1-yl)-1,5-naphthyridin-4-yl)ethyl)-2-oxabicyclo[2.2.2]octan-4-ylamino)methyl)-2H-pyrido[3,2-b][1,4]oxazin-3(4H)-one], for which the MIC stood at 0.5 mg/L (≈ 0.889 µM). Consider `O=C1COc2ccc(CNC34CCC(CCc5c(F)cnc6ccc(OCC7(O)COC7)nc56)(CC3)OC4)nc2N1` [Example 170, 6-((1-(2-(3-Fluoro-6-((3-hydroxyoxetan-3-yl)methoxy)-1,5-naphthyridin-4-yl)ethyl)-2-oxabicyclo[2.2.2]octan-4-ylamino)methyl)-2H-pyrido[3,2-b][1,4]oxazin-3(4H)-one], for which the MIC was 0.125 mg/L (≈ 0.221 µM). As for `COc1ccc2ncc(F)c(CCC34CCC(NCc5ccc(N6CCOCC6)nc5)(CC3)CO4)c2n1` [Example 64, 1-(2-(3-Fluoro-6-methoxy-1,5-naphthyridin-4-yl)ethyl)-N-((6-morpholinopyridin-3-yl)methyl)-2-oxabicyclo[2.2.2]octan-4-amine], the MIC is 4 mg/L (≈ 7.88 µM). On the same count and under the same terms, the value for `COc1ccc2ncc(Cl)c(C#CC34CCC(NCc5ccc6c(n5)NC(=O)CO6)(CC3)CC4)c2n1.Cl` [Example 6, 6-((4-((3-Chloro-6-methoxy-1,5-naphthyridin-4-yl)ethynyl)bicyclo[2.2.2]octan-1-ylamino)methyl)-2H-pyrido[3,2-b][1,4]oxazin-3(4H)-one Hydrochloride] was 0.031 mg/L. The compound `O=C1COc2ccc(CNC34CCC(C(O)Cn5c(=O)ccc6ncc(F)cc65)(CC3)OC4)nc2N1` (single isomer, unassigned) [Example 55a, 6-((1-(2-(7-Fluoro-2-oxo-1,5-naphthyridin-1(2H)-yl)-1-hydroxyethyl)-2-oxabicyclo[2.2.2]octan-4-ylamino)methyl)-2H-pyrido[3,2-b][1,4]oxazin-3(4H)-one] gave a S_aureus_Smith_WT_MIC of 1.00 µg/mL. As for `COc1ccc2ncc(F)c(CCC34CCC(NCc5ccc6c(c5)OCCN6C)(CC3)CO4)c2n1` [Example 66, 1-(2-(3-Fluoro-6-methoxy-1,5-naphthyridin-4-yl)ethyl)-N-((4-methyl-3,4-dihydro-2H-benzo[b][1,4]oxazin-7-yl)methyl)-2-oxabicyclo[2.2.2]octan-4-amine], the MIC is 0.125 mg/L (≈ 0.254 µM). With `N#Cc1cnc2ccc(=O)n(CC(O)C34CCC(NCc5ccc6c(n5)NC(=O)CO6)(CC3)CO4)c2c1` (single isomer, unassigned; enantiomer a) [Example 160, 5-(2-Hydroxy-2-(4-((3-oxo-3,4-dihydro-2H-pyrido[3,2-b][1,4]oxazin-6-yl)methylamino)-2-oxabicyclo[2.2.2]octan-1-yl)ethyl)-6-oxo-5,6-dihydro-1,5-naphthyridine-3-carbonitrile (Enantiomer A)], the MIC is 0.25 mg/L (≈ 0.497 µM). Take `COc1ccc2ncc(F)c(C(O)C(O)C34CCC(NCc5ccc6c(n5)NC(=O)CO6)(CC3)CO4)c2n1.Cl` (single isomer, unassigned) [Example 26b, 6-((1-(2-(3-Fluoro-6-methoxy-1,5-naphthyridin-4-yl)-1,2-dihydroxyethyl)-2-oxabicyclo[2.2.2]octan-4-ylamino)methyl)-2H-pyrido[3,2-b][1,4]oxazin-3(4H)-one Hydrochloride]: the S_aureus_Smith_WT_MIC (Hydrochloride) was 1.00 µg/mL. For the compound `COc1ccc2ncc(F)c(CCC34CCC(NCc5ccc6c(n5)NC(=O)CO6)(CC3)C4)c2n1` [Example 12, 6-((4-(2-(3-Fluoro-6-methoxy-1,5-naphthyridin-4-yl)ethyl)bicyclo[2.2.1]heptan-1-ylamino)methyl)-2H-pyrido[3,2-b][1,4]oxazin-3(4H)-one], the MIC was 0.25 mg/L (≈ 0.524 µM). For `COc1ccc2ncc(F)c(NCC34CCC(NCc5ccc6c(n5)NC(=O)CO6)(CC3)CO4)c2n1` [Example 136, 6-({1-[(3-Fluoro-6-methoxy-[1,5]naphthyridin-4-ylamino)-methyl]-2-oxa-bicyclo[2.2.2]oct-4-ylamino}-methyl)-4H-pyrido[3,2-b][1,4]oxazin-3-one], the MIC was 0.25 mg/L (≈ 0.506 µM).

As for `O=C1COc2ccc(CNC34CCC(CCc5c(F)cnc6ccc(N7CCOC7=O)nc56)(CC3)OC4)nc2N1` [Example 292, 6-((1-(2-(3-Fluoro-6-(2-oxooxazolidin-3-yl)-1,5-naphthyridin-4-yl)ethyl)-2-oxabicyclo[2.2.2]octan-4-ylamino)methyl)-2H-pyrido[3,2-b][1,4]oxazin-3(4H)-one], the MIC turned out to be 0.125 mg/L (≈ 0.228 µM). Take `COc1ccc2ncc(F)c(CCC34CCC(NCc5cc6ccc(Cl)cc6n(C)c5=O)(CC3)CO4)c2n1` [Example 104, 7-Chloro-3-((1-(2-(3-fluoro-6-methoxy-1,5-naphthyridin-4-yl)ethyl)-2-oxabicyclo[2.2.2]octan-4-ylamino)methyl)-1-methylquinolin-2(1H)-one]: the MIC is above 8 mg/L.
